Assay results published in ChEMBL document CHEMBL5113392, “Novel hybrid pyrrolidinedione-thiazolidinones as potential anticancer agents: Synthesis and biological evaluation” (Eur J Med Chem, 2022).
Activity calls are given as the source filed them. The calls are words filed in the database; no cut-off is given here.

How the values were obtained:
RXF 393 [1] = test: Anticancer activity against human RXF 393 cells assessed as inhibition of cell growth at 10 uM incubated for 48 hrs by SRB assay; assay type: functional; conditions: RXF 393, 48 h, values are per cent of control
SR = test: Anticancer activity against human SR cells assessed as growth inhibition incubated for 48 hrs by SRB assay; assay type: functional
HOP-62 = test: Anticancer activity against human HOP-62 cells assessed as growth inhibition incubated for 48 hrs by SRB assay; assay type: functional
HOP-92 [2] = test: Anticancer activity against human HOP-92 cells assessed as growth inhibition incubated for 48 hrs by SRB assay; assay type: functional
NCI-H226 = test: Anticancer activity against human NCI-H226 cells assessed as growth inhibition incubated for 48 hrs by SRB assay; assay type: functional
NCI-H460 = test: Anticancer activity against human NCI-H460 cells assessed as growth inhibition incubated for 48 hrs by SRB assay; assay type: functional
HCC 2998 [3] = test: Anticancer activity against human HCC 2998 cells assessed as growth inhibition incubated for 48 hrs by SRB assay; assay type: functional
KM12 = test: Anticancer activity against human KM12 cells assessed as growth inhibition incubated for 48 hrs by SRB assay; assay type: functional
SW-620 [4] = test: Anticancer activity against human SW-620 cells assessed as growth inhibition incubated for 48 hrs by SRB assay; assay type: functional
SF-539 = test: Anticancer activity against human SF-539 cells assessed as growth inhibition incubated for 48 hrs by SRB assay; assay type: functional
M14 = test: Anticancer activity against human M14 cells assessed as growth inhibition incubated for 48 hrs by SRB assay; assay type: functional
UACC-62 = test: Anticancer activity against human UACC-62 cells assessed as growth inhibition incubated for 48 hrs by SRB assay; assay type: functional
RXF 393 [5] = test: Anticancer activity against human RXF 393 cells assessed as growth inhibition incubated for 48 hrs by SRB assay; assay type: functional
SN12C [6] = test: Anticancer activity against human SN12C cells assessed as growth inhibition incubated for 48 hrs by SRB assay; assay type: functional
DU-145 [7] = test: Anticancer activity against human DU-145 cells assessed as growth inhibition incubated for 48 hrs by SRB assay; assay type: functional
MDA-MB-231 = test: Anticancer activity against human MDA-MB-231 cells assessed as growth inhibition incubated for 48 hrs by SRB assay; assay type: functional
MDA-MB-468 = test: Anticancer activity against human MDA-MB-468 cells assessed as growth inhibition incubated for 48 hrs by SRB assay; assay type: functional
K562 = test: Anticancer activity against human K562 cells assessed as total growth inhibition incubated for 48 hrs by SRB assay; assay type: functional
A549 = test: Anticancer activity against human A549 cells assessed as total growth inhibition incubated for 48 hrs by SRB assay; assay type: functional
HOP-92 [8] = test: Anticancer activity against human HOP-92 cells assessed as total growth inhibition incubated for 48 hrs by SRB assay; assay type: functional
NCI-H522 = test: Anticancer activity against human NCI-H522 cells assessed as total growth inhibition incubated for 48 hrs by SRB assay; assay type: functional
HCC 2998 [9] = test: Anticancer activity against human HCC 2998 cells assessed as total growth inhibition incubated for 48 hrs by SRB assay; assay type: functional
SW-620 [10] = test: Anticancer activity against human SW-620 cells assessed as total growth inhibition incubated for 48 hrs by SRB assay; assay type: functional
SF-268 = test: Anticancer activity against human SF-268 cells assessed as total growth inhibition incubated for 48 hrs by SRB assay; assay type: functional
SNB-19 [11] = test: Anticancer activity against human SNB-19 cells assessed as total growth inhibition incubated for 48 hrs by SRB assay; assay type: functional
OVCAR-8 [12] = test: Anticancer activity against human OVCAR-8 cells assessed as total growth inhibition incubated for 48 hrs by SRB assay; assay type: functional
SN12C [13] = test: Anticancer activity against human SN12C cells assessed as total growth inhibition incubated for 48 hrs by SRB assay; assay type: functional
MCF7 = test: Anticancer activity against human MCF7 cells assessed as total growth inhibition incubated for 48 hrs by SRB assay; assay type: functional
RPMI-8226 = test: Anticancer activity against human RPMI-8226 cells assessed as lethality incubated for 48 hrs by SRB assay; assay type: functional; conditions: read-out: LC50 (the source's name)
EKVX = test: Anticancer activity against human EKVX cells assessed as lethality incubated for 48 hrs by SRB assay; assay type: functional; conditions: read-out: LC50 (the source's name)
HOP-92 [14] = test: Anticancer activity against human HOP-92 cells assessed as lethality incubated for 48 hrs by SRB assay; assay type: functional; conditions: read-out: LC50 (the source's name)
SNB-19 [15] = test: Anticancer activity against human SNB-19 cells assessed as lethality incubated for 48 hrs by SRB assay; assay type: functional; conditions: read-out: LC50 (the source's name)
UACC-257 = test: Anticancer activity against human UACC-257 cells assessed as lethality incubated for 48 hrs by SRB assay; assay type: functional; conditions: read-out: LC50 (the source's name)
OVCAR-3 = test: Anticancer activity against human OVCAR-3 cells assessed as lethality incubated for 48 hrs by SRB assay; assay type: functional; conditions: read-out: LC50 (the source's name)
OVCAR-4 = test: Anticancer activity against human OVCAR-4 cells assessed as lethality incubated for 48 hrs by SRB assay; assay type: functional; conditions: read-out: LC50 (the source's name)
OVCAR-8 [16] = test: Anticancer activity against human OVCAR-8 cells assessed as lethality incubated for 48 hrs by SRB assay; assay type: functional; conditions: read-out: LC50 (the source's name)
CAKI-1 = test: Anticancer activity against human CAKI-1 cells assessed as lethality incubated for 48 hrs by SRB assay; assay type: functional; conditions: read-out: LC50 (the source's name)
TK-10 = test: Anticancer activity against human TK-10 cells assessed as lethality incubated for 48 hrs by SRB assay; assay type: functional; conditions: read-out: LC50 (the source's name)
UO-31 = test: Anticancer activity against human UO-31 cells assessed as lethality incubated for 48 hrs by SRB assay; assay type: functional; conditions: read-out: LC50 (the source's name)
DU-145 [17] = test: Anticancer activity against human DU-145 cells assessed as lethality incubated for 48 hrs by SRB assay; assay type: functional; conditions: read-out: LC50 (the source's name)
KB 3-1 = test: Anticancer activity against human KB 3-1 cells assessed as cell growth inhibition incubated for 72 hrs by MTT assay; assay type: functional
HCT-116 = test: Anticancer activity against human HCT-116 cells assessed as cell growth inhibition incubated for 72 hrs by MTT assay; assay type: functional
[18] = Anticancer activity against human HCT116-p53-null cells assessed as cell growth inhibition incubated for 72 hrs by MTT assay; assay type: functional
[19] = Selectivity index, ratio of GI50 for human HaCaT cells to GI50 for human KB 3-1 cells; assay type: toxicity; conditions: HaCaT cells versus KB 3-1 cells, read-out: RatioGI50
[20] = Selectivity index, ratio of GI50 for human HaCaT cells to GI50 for human HCT-116 cells; assay type: toxicity; conditions: HaCaT cells versus HCT-116 cells, read-out: RatioGI50
[21] = Cytotoxicity against mitogen activated human peripheral blood lymphocytes assessed as cell growth inhibition incubated for 48 hrs by MTT assay; assay type: toxicity, cell-based, Lymphocyte
Jurkat [22] = test: Induction of morphological changes in human Jurkat cells assessed as chromatin topology incubated for 24 hrs by Hoechst 33258 and propidium iodide staining based fluorescence microscopy; assay type: functional, cell-based
Jurkat [23] = test: Induction of morphological changes in human Jurkat cells assessed as chromatin condensation incubated for 24 hrs by Hoechst 33258 and propidium iodide staining based fluorescence microscopy; assay type: functional, cell-based
Jurkat [24] = test: Induction of morphological changes in human Jurkat cells assessed as plasma membrane blebbing incubated for 24 hrs by Hoechst 33258 and propidium iodide staining based fluorescence microscopy; assay type: functional, cell-based

SMILES: O=C1CC(N2C(=O)/C(=C/C(Cl)=C/c3ccc([N+](=O)[O-])cc3)SC2=S)C(=O)N1c1ccc(O)cc1 (centres undefined)
- growth, % of control at 10 µM (RXF 393 [1]): -70.5%
- GI50 (SR): 0.394 µM
- GI50 (HOP-62): 2.26 µM
- GI50 (HOP-92 [2]): 1.62 µM
- GI50 (NCI-H226): 2.41 µM
- GI50 (NCI-H460): 2.55 µM
- GI50 (HCC 2998 [3]): 1.48 µM
- GI50 (KM12): 1.83 µM
- GI50 (SW-620 [4]): 0.684 µM
- GI50 (SF-539): 1.72 µM
- GI50 (M14): 1.46 µM
- GI50 (UACC-62): 1.67 µM
- GI50 (RXF 393 [5]): 1.53 µM
- GI50 (SN12C [6]): 1.6 µM
- GI50 (DU-145 [7]): 1.72 µM
- GI50 (MDA-MB-231): 2.14 µM
- GI50 (MDA-MB-468): 1.87 µM
- TGI (K562): 9.55 µM
- TGI (A549): 11.4 µM
- TGI (HOP-92 [8]): 3.72 µM
- TGI (NCI-H522): 4.23 µM
- TGI (HCC 2998 [9]): 2.92 µM
- TGI (SW-620 [10]): 2.28 µM
- TGI (SF-268): 6.99 µM
- TGI (SNB-19 [11]): 3.47 µM
- TGI (OVCAR-8 [12]): 14.2 µM
- TGI (SN12C [13]): 5.88 µM
- TGI (MCF7): 10.7 µM
- CC50 (RPMI-8226): > 100 µM
- CC50 (EKVX): 35.3 µM
- CC50 (HOP-92 [14]): 8.54 µM
- CC50 (SNB-19 [15]): 8.97 µM
- CC50 (UACC-257): 44.2 µM
- CC50 (OVCAR-3): 4.96 µM
- CC50 (OVCAR-4): 41.9 µM
- CC50 (OVCAR-8 [16]): > 100 µM
- CC50 (CAKI-1): 5.12 µM
- CC50 (TK-10): 7.46 µM
- CC50 (UO-31): 5.78 µM
- CC50 (DU-145 [17]): 6.62 µM
- GI50 (KB 3-1): 8 µM
- GI50 (HCT-116): 4.52 µM
- GI50 [18]: 5.65 µM
- selectivity ratio [19]: 9.2
- selectivity ratio [20]: 16.3
- GI50 at 48 h [21]: 51.2 µM
- Activity (Jurkat [22]): Active
- Activity (Jurkat [23]): Active
- Activity (Jurkat [24]): Active
